Results as given in PubChem BioAssay (NCI).
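Dose response: 5 concentrations. Exposure: 48 h. Format: 96-well plates. Endpoint: linear interpolation; highest concentration if not reached. GI50: concentration for 50% inhibition of growth. TGI denotes the concentration required for complete inhibition of growth.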

Columns and labels:
Assay in all cases: DTP human tumour cell line panel, 48 h
[1] = system: NCI-H23 lung
[2] = system: NCI-H460 lung
[3] = system: NCI-H522 lung
[4] = system: NCI/ADR-RES ovarian
[5] = system: OVCAR-3 ovarian
[6] = system: OVCAR-4 ovarian
[7] = system: OVCAR-5 ovarian
[8] = system: OVCAR-8 ovarian
[9] = system: PC-3 prostate
[10] = system: RPMI-8226 leukemia
[11] = system: RXF 393 renal
[12] = system: SF-268 CNS
[13] = system: SF-295 CNS
[14] = system: SF-539 CNS
[15] = system: SK-MEL-2 melanoma
[16] = system: SK-MEL-28 melanoma
[17] = system: SK-MEL-5 melanoma
[18] = system: SK-OV-3 ovarian
[19] = system: SN12C renal
[20] = system: SNB-19 CNS
[21] = system: SNB-75 CNS
[22] = system: SR leukemia
[23] = system: SW-620 colon
[24] = system: T-47D breast
[25] = system: TK-10 renal
[26] = system: U251 CNS
[27] = system: UACC-257 melanoma
[28] = system: UACC-62 melanoma
[29] = system: UO-31 renal

CCCS(=O)(=O)Nc1ccc(F)c(C(=O)c2c[nH]c3ncc(Cl)cc23)c1F
GI50 [1]: 20.7 µM | TGI [1]: > 91.6 µM | GI50 [2]: 5.92 µM | TGI [2]: 50.3 µM | GI50 [3]: 8.34 µM | TGI [3]: 31.5 µM | GI50 [4]: 14.8 µM | TGI [4]: > 90.3 µM | GI50 [5]: 15.4 µM | TGI [5]: 58.7 µM | GI50 [6]: 9.74 µM | TGI [6]: 75.7 µM | GI50 [7]: 23.3 µM | TGI [7]: > 92.8 µM | GI50 [8]: 8.81 µM | TGI [8]: 61.8 µM | GI50 [9]: 10.6 µM | TGI [9]: 77.6 µM | GI50 [10]: 25.2 µM | TGI [10]: > 100 µM | GI50 [11]: 5.23 µM | TGI [11]: 22.4 µM | GI50 [12]: 13.5 µM | TGI [12]: 73 µM | GI50 [13]: 5.35 µM | TGI [13]: 45.6 µM | GI50 [14]: 9.1 µM | TGI [14]: 57.4 µM | GI50 [15]: 4.37 µM | TGI [15]: 16.4 µM | GI50 [16]: 0.109 µM | TGI [16]: 9.62 µM | GI50 [17]: 1.24 µM | TGI [17]: 19 µM | GI50 [18]: 3.76 µM | TGI [18]: 36.5 µM | GI50 [19]: 7.66 µM | TGI [19]: 84.9 µM | GI50 [20]: 29.7 µM | TGI [20]: 99.7 µM | GI50 [21]: 4.9 µM | TGI [21]: 24.8 µM | GI50 [22]: 4.68 µM | TGI [22]: 48 µM | GI50 [23]: 22.6 µM | TGI [23]: 87.3 µM | GI50 [24]: 8.55 µM | TGI [24]: 65 µM | GI50 [25]: 6.3 µM | TGI [25]: 35.9 µM | GI50 [26]: 9.08 µM | TGI [26]: 60.5 µM | GI50 [27]: 0.129 µM | TGI [27]: 1.18 µM | GI50 [28]: 0.0639 µM | TGI [28]: 2.14 µM | GI50 [29]: 6.4 µM | TGI [29]: 66.3 µM
